melting point	Compound
246 to 247 °C	O=C1CCC2=C1C(c1ccc(Br)s1)C1=C(CCS1)N2 (configuration not stated)
212 to 213 °C	CC12CCCc3cc(NC(=O)c4ccc(C(=O)O)cn4)cc(c31)CCC2
155 to 157 °C	O=c1oc2c(I)cc(I)cc2s1
219 °C	O=c1cc(-c2ccncc2)nc2n1CCCN2
109 to 112 °C	Cc1ccc([N+](=O)[O-])c(C)c1C(=O)O
87 to 88 °C	CC(C)(C)OC(=O)N1C[C@@H](Br)C[C@@H]1C(=O)OCc1ccccc1
114 to 120 °C	Cc1cccc(CN2CCN(C(c3ccc(Cl)cc3)c3cccc(OCC(=O)O)c3)CC2)c1 (configuration not stated)
58 to 60 °C	COc1cc(C)c2ccc(Br)cc2n1
230 °C	Nc1ccc2nc(-c3cccnc3)nn2c1
178 to 179 °C	NNC(=O)CCSCCOC1OC(CO)C(O)C(O)C1O (configuration not stated)
245 to 247 °C	O=C1CN(Cc2ccc(COc3cccc4c3CN(C3CCC(=O)NC3=O)C4=O)cc2)CCN1 (configuration not stated)
209 to 212 °C	CCn1cc(C(=O)O)c(=O)c2cc(F)c(N3CCN(C)C(c4ccco4)C3)cc21 (configuration not stated)
68 to 69 °C	C=Cc1ccc(OCc2ccccc2)cc1
204 to 208 °C	Nc1c(-c2ccc(NS(=O)(=O)c3ccccc3Cl)cc2F)cnc2c(CO)cnn12
275 to 279 °C	Cc1ccc(C(=O)Nc2cc(-c3cccnc3)cc(C(F)(F)F)c2)cc1Nc1nccc(-c2cccnc2)n1
92 to 95 °C	CCCN(C1=C(O)CC(C2CCCC2)(C2CCCC2)OC1=O)c1cccc(NS(=O)(=O)c2cccs2)c1
165 to 167 °C	Fc1ccc2c(c1)N=C(N1CCNCC1)c1sccc1N2
50 to 60 °C	CN(C)C[C@@H]1NCCC[C@H]1O (relative stereo)
132 to 134 °C	CCn1cc(C(=O)OC)c(=O)cc1-c1ccc(N(C)C)c(C)c1
278 to 281 °C	NC(=O)c1ccc2c(c1)S(=O)(=O)N=CN2C1CC1
93 to 96 °C	Cc1ccccc1S(=O)(=O)Nc1onc(C)c1Br
184 °C	COc1ccc2[nH]cc(/C(C#N)=C/c3ccc(Cl)nc3)c2c1
> 220 °C	Oc1ccc(-c2n[nH]c3ncnc(Nc4cccc(Cl)c4)c23)cc1
100 to 103 °C	CCOCCOc1ccc(C(C)C)c(NC(=O)CN2CCN(CCSc3nc4ccccc4o3)CC2)c1C(C)C
125 to 128 °C	CC(C)C(NC(=O)c1ccccc1)C(=O)O (racemic)

melting point	Compound
126 to 127 °C	O=C(Oc1ccccc1Br)c1cc(I)c[nH]1
120 to 122 °C	CCOC(=O)c1cc([N+](=O)[O-])c(N)nc1C(=O)OCC
227 to 229 °C	C#Cc1ccc2c(=O)c(C(=O)OCC)cn(-c3ccc(F)cc3)c2c1
239 to 240 °C	CNc1nc(-c2ccccc2)c(-c2nc3ccccc3c(=O)n2-c2ccc(C(C)=O)cc2)s1
199 to 200 °C	CCCc1ccc(OCCC(C)C)c2c(=O)cc(-c3nnn[nH]3)oc12
135 to 137 °C	CCOC(=O)C1(C(=O)N(Cc2ccccc2)Cc2ccccc2)CC(=O)N(C(C)c2ccccc2)C1 (configuration not stated)
41 to 43 °C	CCC(=O)c1ccc(OCCCCl)cc1
77 to 80 °C	C=CCNc1nc(NCC=C)c2scc(C)c2n1
246 to 247 °C	O=Cc1ccc(-c2nc3ccccn3n2)cc1
67 to 70 °C	Cc1cc(NC(=O)NC(=O)c2ccccc2N2CCOCC2)ccc1Oc1ncc(Br)cn1
135 to 136 °C	O=C(Nc1ccc(-n2nc(C(F)(F)F)cc2OC(F)F)cc1)c1ccncc1F
207 to 208 °C	COc1ccc(NC(=O)/C(C)=C/c2ccc(C(F)(F)F)cc2)c(C(=O)O)c1
84.5 to 86 °C	CC(C)(C)OC(=O)NCCC(=O)NCC(C(=O)OCc1ccccc1)c1ccccc1 (configuration not stated)
67 to 68 °C	CC(C)n1nc(CC(=O)c2ccc(F)cc2)ccc1=O
> 200 °C	Clc1ccc(Cl)c(CN2CCNc3ncc(-c4ccc(N5CCCC5)nc4)cc32)c1
136 to 137 °C	CC(=O)NCC1CN(c2ccc(N3CCN(C(=O)COC(=O)CCN(C)C)CC3)c(F)c2)C(=O)O1 (configuration not stated)
> 250 °C	COc1ccc2c(Nc3ccc4cn[nH]c4c3)c(C#N)cnc2c1
269 to 270 °C	CCOC(=O)c1cn(CCF)c2nc(N3CCC(NC(C)=O)C3)c(F)cc2c1=O (configuration not stated)
152 to 155 °C	CCOCc1nc2c(N)nc3ccccc3c2n1CCOCCNS(C)(=O)=O
275 to 277 °C	C#CCNC(=O)c1ncn2c1CN(C)C(=O)c1sccc1-2
182 to 184 °C	CCCc1c(OCCCCCOc2ccc(C(=O)CCC(=O)O)cc2CCC(=O)O)ccc2c1OCCC2=O
165 to 169 °C	COC(=O)C=CN1c2ccccc2Sc2nccnc21
212 to 214 °C	CCCNC(=Nc1ccccc1N1CCOCC1)NCCC
95 to 98 °C	O=C(CS(=O)Cc1cccs1)C12CC3CC(CC(C3)C1)C2 (configuration not stated)
248 to 249 °C	COc1ccc(Cc2ccc3[nH]c4cnn(C)c4c(=O)c3c2)cc1

melting point	Compound
292 °C	O=C(O)c1cnc(-c2nnn[nH]2)c2ccccc12
108 to 112 °C	OC1CC=C(c2ccc(Cl)cc2)CC1 (configuration not stated)
80 to 83 °C	CCc1n[nH]c(CC)c1CCCCCOc1ccc(OC)cc1Cl
112 to 115 °C	Cc1cc(C(O)(C(F)(F)F)C(F)(F)F)cc(C)c1NCCN(C)C
298 to 299 °C	COc1ccc(-c2c(Cl)c(CN3C(=O)c4ccccc4C3=O)nc3sc4c(c23)CCS(=O)(=O)C4)cc1
231 to 234 °C	CC(C)OC(=O)N1CCN(c2ccc3oc(-c4ccc(S(C)(=O)=O)cc4F)nc3c2)CC1
107 to 109 °C	COC(=O)C1(CCCCl)Oc2ccccc2CCC1O (configuration not stated)
220 to 222 °C	Nc1ncc2cc(-c3c(Cl)cccc3Cl)c(=O)n(Cc3ccccc3)c2n1
142 to 143 °C	COc1cc([N+](=O)[O-])c(C(=O)Cc2ccccc2)cc1O
73 °C	Cc1cc2c(cc1Br)C(C)(C)CCC2(C)C
126 to 137 °C	CCOC(CCc1c(N(C(C)=O)C(C)=O)nc(NC(C)=O)[nH]c1=O)OCC
210 to 214 °C	O=C(c1ccccc1)C(O)C1OC(n2cc(F)c(=O)[nH]c2=O)C(O)(C(=O)c2ccccc2)C1(O)C(=O)c1ccccc1 (configuration not stated)
193 °C	Cc1ccc(S(=O)(=O)N2CCN(c3ccc(O)cc3)CC2)cc1
204 to 206 °C	COc1cc(N)c(Cl)cc1C(=O)NCC1CCN(CCCCCNC(=O)Nc2ccc(Cl)cc2)CC1
173 °C	CCc1oc2ccccc2c1C(=O)c1cc(Br)c(OS(=O)(=O)c2ccc(C(=O)O)c(O)c2)c(Br)c1
223 °C	COC(=Cc1ccc(-c2cccc(N(C)C(=O)Nc3ccccc3)c2)cc1)C(=O)O
248 to 250 °C	Cc1cccc(-c2cnc3c(N)ncnc3n2)c1
155 to 158 °C	O=C(NCCCc1ccncc1)N(CCC12CC3CC(CC(C3)C1)C2)CC1CCCC1
102 to 103 °C	O=[N+]([O-])c1ccc(OS(=O)(=O)C(F)(F)F)c2oc3ccccc3c12
150 to 152 °C	O=c1cc(OCc2ccccc2)cc(C=Cc2ccc3c(c2)OCO3)o1
201 °C	CC1=C(C(=O)c2ccc(C(=O)O)cc2)C(=O)C2C=CC=CC2C1=O (configuration not stated)
203 to 205 °C	O=c1[nH]ccc2nc(C(F)(F)F)nn12
189 °C	OC1CSC(Oc2cc(-c3ccncc3)ccc2Cl)C(O)C1O (configuration not stated)
139 to 140 °C	CN1CCc2ccc(C(=O)CCC(=O)N3CCC(c4ccc(Cl)cc4)CC3)cc2C1
145 to 148 °C	O=[N+]([O-])c1ccc(-c2cccnc2)cc1

melting point	Compound
135 to 136 °C	CCN(CC)CCSC1=C(C#N)C(c2ccccn2)(c2ccccn2)C(=O)N1
115 to 157 °C	CC(C)COc1ccc(-c2ccc3nnn(Cc4ccc5ncccc5c4)c3n2)cc1F
> 300 °C	O=c1cc2c(n[nH]1)CCc1cc(O)ccc1-2
66 to 68 °C	O=C(O)CSc1nc(-c2ccccc2)c(-c2ccccc2)o1
204 °C	OC1CSC(Oc2cncc(-c3nccs3)c2)C(O)C1O (configuration not stated)
> 300 °C	CCCc1c2c(nn1-c1ccccc1)c(=O)[nH]c1ccccc12
146 to 151 °C	CN1CCN(CCCNc2ncc3cc(-c4c(Cl)cccc4Cl)c(NC(=O)Nc4ccc(C(F)(F)F)cc4)nc3n2)CC1
193 to 195 °C	O=P(O)(O)C(O)(CCC1CCCCN1)P(=O)(O)O (configuration not stated)
146 °C	CC(C)NCC(O)c1cnc(N)c(Cl)c1 (configuration not stated)
233 to 236 °C	COc1ccc2nc(COc3ccc(CC(C(N)=O)S(C)(=O)=O)cc3)n(C)c2c1 (configuration not stated)
202 °C	O=C1CC(=CN2CCOCC2)Oc2c(O)cccc21
167 to 168 °C	O=C(O)CCC(=O)c1cc2c(s1)CCc1ccccc1C2=O
177 to 178 °C	O=C(CNc1ccc(Cl)cc1)c1cc(O)c(O)c([N+](=O)[O-])c1
82 to 83 °C	c1ccc(COc2cccc(CCCn3ccnc3)c2)cc1
146 to 148 °C	CC(=O)OCC(=O)C1=CCC2C3CCC4=CC(=O)CCC4(C)C3CCC12C (configuration not stated)
155 to 156 °C	N#Cc1ccc(N(Cc2ccc(OCc3ccccc3)cc2)n2cnnc2)cc1-c1ccoc1
118 to 119 °C	CC(=O)c1c(N(C)C)c(-c2ccccc2)n(Cc2ccc(Cl)cc2)c1C
101 to 102 °C	COC(=O)c1cc(N)n(C)n1
160 to 162 °C	CCc1cc(N(C=O)c2ccccc2)cc(CC)c1N(C(N)=S)C(C)(C)C
180 °C	Cc1cc2cc(CN3CCCCCC3)cnc2cc1NC(=O)c1ccc(-c2ccc(Cl)s2)cc1
168 to 170 °C	CN1C(=O)CN(c2ccccc2)C1=O
270 to 271 °C	O=C(O)c1ccc(C(=O)c2ccc(Br)cc2)cc1

Compound	melting point
CC1=NC(=NOC(=O)N(C)C)SC1(C)C	108 to 110 °C
CC1CC(c2cc3ccc(F)cc3s2)CCN1 (configuration not stated)	34 to 37 °C
O=[N+]([O-])c1cc(Br)c(NS(=O)(=O)c2ccccc2)cc1Br	148 °C
CC12CC(F)C3C4CCC(=O)C=C4CCC3C1CCC2=O (configuration not stated)	173 to 174 °C
CCOCn1cc(C(C)=O)c2c(OC)cc(Br)nc21	114 to 116 °C
